Measured values taken from patent US7273848B2, “Apolipoprotein A-I agonists and their use to treat dyslipidemic disorders” (priority 1997, dated 2007).
No end group written: not given here.

Assay: Superose 6 gel filtration chromatography of peptide-lipid complexes
Assay type: physicochemical
Details: peptide/DPPC complexes, 1 mg peptide and 3 mgs DPPC, colyophilized, in 0.9% NaCl
Procedure: An aliquot of the resulting reconstituted preparation can be characterized to confirm that the complexes in the preparation have the desired size distribution; e.g., the size distribution of HDL. Gel filtration chromatography can be used to this end. In the working examples described infra, a Pharmacia Superose 6 FPLC gel filtration chromatography system was used. The buffer used contains 150 mM NaCl in 50 mM phosphate buffer, pH 7.4. A typical sample volume is 20 to 200 microliters of complexes containing 5 mgs peptide/ml. The column flow rate is 0.5 mls/min. A series of proteins of known molecular weight and Stokes' diameter as well as human HDL are used as standards to calibrate the column. The proteins and lipoprotein complexes are monitored by absorbance or scattering of light of wavelength 254 or 280 nm.
Peptide-phospholipid complexes containing peptide 149 (SEQ ID NO:149) were prepared by colyophilization as described above. The preparation contained 1 mg peptide and 3 mgs DPPC by weight. […] The chromatography was monitored by absorbance or scattering of light of wavelength 280 nm. […] The vast majority of both phospholipid and UV absorbance were recovered together in a few fractions with peaks at approximately 15.8 mls. […]

## PVLELFENLWERLLDALQKKLK [peptide 149]
  Stokes' diameter: 87 Angstroms
